Test results as given in the supplement of paper PMC8837787.

Tested on: Saccharomyces cerevisiae ABC16-Green Monster
Assay: growth inhibition at single dose (up to 150 µM), below the 70% cut-off for dose-response; higher = more potent
Settings: 18 h; 30 °C; YPD
Method in brief: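 Drug-sensitive S. cerevisiae ABC16-Green Monster cells were grown overnight in YPD at 30 °C and diluted to log phase (OD600 0.1–0.2). Each library compound was added at one dose of 150 µM to 200 µl culture per well in 96-well plates, in biological duplicates, with untreated cultures alongside. OD600 was read at 0 h and after 18 h at 30 °C. The value is percent growth inhibition; compounds below 70% in both replicates were not taken to dose-response.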

| SMILES | growth inhibition at single dose [%] |
| --- | --- |
| O=C(Cn1nnc2ccccc2c1=O)c1ccc(C2CCCCC2)cc1 | < 70 |
| COCCNC(=O)c1ccc(OC2CCN(Cc3ccc(F)c(F)c3)CC2)c(Cl)c1 | < 70 |
| Cc1ccc(Nc2nc(N)c3ccccc3n2)cc1Cl | < 70 |
| CC(C)C(NC(=O)Cc1cccc2ccccc12)C(=O)Nc1cccc(C#N)c1 (stereo not given) | < 70 |
| CCOc1ccc(N2C(N)=NC(N)=NC2(C)C)cc1 | < 70 |
| CCN1CCN(Cc2ccc(NC(=O)c3cc4ccc5cccnc5c4[nH]3)cc2)CC1 | < 70 |
| OCCNCc1cc(Br)ccc1OCc1ccc(F)cc1 | < 70 |
| COc1ccc(N2CCN(C(CNC(=O)CC(C)(C)C)c3ccc4c(c3)OCO4)CC2)cc1 (stereo not given) | < 70 |
| CCOc1cccc(C(=O)Nc2ccc(-c3nc4ccccc4[nH]3)cc2)c1 | < 70 |
| Cc1ccccc1-n1nnc(C(=O)Nc2cccc(Br)c2)c1N | < 70 |
| O=C(COc1ccc2[nH]c3ccccc3c(=O)c2c1)Nc1ccccc1Cc1ccccc1 | < 70 |
| CCN(CC)CCNc1ccnc2cc(Cl)ccc12 | < 70 |
| CC(C)(C)c1ccc(C(=O)Nc2c3c(nn2-c2cccc(Cl)c2)CSC3)cc1 | < 70 |
| Cc1ccc(C)c(S(=O)(=O)N2CCN(C(=O)c3[nH]nc4ccccc34)CC2)c1 | < 70 |
| CNC(=O)C1Cc2c([nH]c3cc(Cl)ccc23)C2(CCN(CCc3ccccc3)CC2)N1 (stereo not given) | < 70 |
| Cn1c(=O)c2c(S(C)(=O)=O)snc2n(C)c1=O | < 70 |
| COc1cccc(Cn2nc(C(=O)NC3CC3)c3c2CCN(Cc2cc4c(cc2Cl)OCO4)C3)c1 | < 70 |
| O=C(Nc1ccc(F)c(-c2nc3cc(-c4ccccc4)cnc3[nH]2)c1)N1CCCC1 | < 70 |
| CCOc1ccc(-n2cc(-c3ccccc3)c3c(SCc4cc(C)ccc4C)ncnc32)cc1 | < 70 |
| CC1CN(C(=O)c2sc3ccccc3c2Cl)CC(C)O1 (stereo not given) | < 70 |
| Cc1cc(C)n2ncc(C(=O)Nc3cccc(/C=C/c4ccccn4)c3)c2n1 | < 70 |
| CCN(CC)C(=O)N1CCN(C)CC1 | < 70 |
| COc1cc(SC)ccc1C(=O)N1CCCC(C)C1 (stereo not given) | < 70 |
| Cc1cc(C)n(-c2ccc(NC(=O)C3(c4ccccc4)CC3)cn2)n1 | < 70 |

| SMILES | growth inhibition at single dose [%] |
| --- | --- |
| N#C/C(=N\Nc1cccc(Cl)c1)C(=O)c1cc(-c2ccccc2)c(C(F)(F)F)s1 | < 70 |
| Cc1ccc(-c2cnn3c(N4CCCC4)cc(C)nc23)cc1 | < 70 |
| CN(C)c1ccc(C(=O)Nc2cnc3ccccc3c2)cc1 | < 70 |
| CC(C)NC(=O)NCc1ccc(C(=O)OCC(=O)C(C#N)=C2Nc3ccccc3N2)cc1 | < 70 |
| CCOc1ccc(C=Cc2nc(=O)c3ccccc3o2)cc1 | < 70 |
| Cc1ccc(-c2cc3c(nn2)-c2ccccc2C3=O)cc1 | < 70 |
| Clc1cc(Br)ccc1-c1ccc(CNCC2CCNCC2)o1 | < 70 |
| S=c1n(CN2CCN(c3ccccc3Cl)CC2)nc(-c2cccs2)n1Cc1ccccc1 | < 70 |
| CCOc1ccc2cc(-c3nn(C(C)(C)C)c(N)c3C(N)=O)cnc2c1 | < 70 |
| COc1ccc2c(c1)CCCC21NC(=O)N(Cc2cc(=O)n3cc(C)ccc3n2)C1=O (stereo not given) | < 70 |
| CC(C(=O)N1CCCC1)N1CCN(S(=O)(=O)c2ccc(C(C)(C)C)cc2)CC1 (stereo not given) | < 70 |
| Cc1nc(-c2ccc(CCNc3ncnc4sccc34)cc2)cs1 | < 70 |
| O=C(Cn1ccnc1[N+](=O)[O-])NCc1ccccc1 | < 70 |
| O=C(NCCCc1nc2ccccc2[nH]1)c1[nH]nc2ccccc12 | < 70 |
| COc1ccc(CN2CCN(Cc3ccccc3)CC2)c(O)c1 | < 70 |
| COCC(C)n1c(C)cc(C(=O)CSc2ccc(NC(C)=O)cc2)c1C (stereo not given) | < 70 |
| CCOc1cc2c(cc1OCC)C(c1cc(Cl)c(O)c(OCC)c1)NCC2 (stereo not given) | < 70 |
| COc1ccc(Nc2nc(NN=Cc3ccc(O)cc3)nc(Nc3ccc([N+](=O)[O-])cc3)n2)cc1 | < 70 |
| COc1ccccc1CNC(=O)CCn1c(=O)[nH]c2ccsc2c1=O | < 70 |
| c1ccc2cc(OCCNc3ncnc4sccc34)ccc2c1 | < 70 |
| COc1cccc(OC)c1C(=O)Nc1ccc(Cl)c(-c2nc3ccccc3s2)c1 | < 70 |
| CNc1snc(C)c1C(=O)NCCOc1ccc(OC)cc1 | < 70 |
| O=C(Nc1ccc(N2CCNCC2)nc1)c1oc(-c2ccccc2)nc1C(F)(F)F | < 70 |
| CC(=O)NCc1ccc(C(=O)Nc2ccccc2O)cc1 | < 70 |

| SMILES | growth inhibition at single dose [%] |
| --- | --- |
| CCC(=O)c1cn(S(=O)(=O)c2ccc(C)cc2)c2ccccc12 | < 70 |
| CNc1nnc(Sc2ncnc3ccsc23)s1 | < 70 |
| CC(=O)NCC1CN(c2ccc(-c3ccc(CO)cc3)c(F)c2)C(=O)O1 (stereo not given) | < 70 |
| CC1CCCCN1CCCNC(=O)c1ccc2c(c1)sc1nc(-c3ccc(F)cc3)cn12 (stereo not given) | < 70 |
| CCCn1c(CNc2ccccc2O)nc2ccccc21 | < 70 |
| Cc1nc(-c2ccccn2)nc(N2CCCC2)c1Cl | < 70 |
| CCOc1cc2c(cc1CNC(=O)c1cnc3cc(C)nn3c1C)OC(C)C2 (stereo not given) | < 70 |
| CS(=O)(=O)N1CCC(CCn2nc(Cc3cccc4ccccc34)c3c(N)ncnc32)CC1 | < 70 |
| CN1CCN(c2c3c(c(C#N)c4nc5ccccc5n24)CCC3)CC1 | < 70 |
| COc1cc(CNC(=O)Nc2nc3ccccc3s2)cc(OC)c1OC | < 70 |
| CCc1cc(=O)n(C)c(SC(C)C(=O)Nc2ccc(F)cc2)n1 (stereo not given) | < 70 |
| COc1cc(NC(=O)Cc2nn(C)c(=O)c3ccccc23)ccc1Cl | < 70 |
| COC(=O)c1c(C)[nH]c(C(=O)Nc2ccc(C)cn2)c1C | < 70 |
| CNC(=O)c1ccc(CN(Cc2ccc(SC)cc2)Cc2ccco2)cc1 | < 70 |
| CN(C)CCCNCc1ccc(-c2ccc(F)c(Cl)c2)o1 | < 70 |
| O=C(NC1CCN(c2nccc(C(F)(F)F)n2)CC1)c1ccco1 | < 70 |
| O=C(O)c1c2c(nc3ccccc13)/C(=C/c1ccccc1Cl)CC2 | < 70 |
| Cc1ccc(NC(=O)c2cc(C(C)(C)C)n(-c3ccccc3)c2C)cc1 | < 70 |
| CN1CCN(c2nccc3[nH]c(-c4cccc(F)c4)cc23)CC1 | < 70 |
| CN(Cc1c(F)cccc1Cl)C(=O)COc1ccc2[nH]c3ccccc3c(=O)c2c1 | < 70 |
| Cc1c(C)n(CCCO)c2ncn3nc(-c4ccc(F)cc4)nc3c12 | < 70 |
| Cc1ccc(CNC(=O)c2ccc(/C=C3\SC(=O)NC3=O)cc2)cc1 | < 70 |
| Nc1nc(Nc2cccc(F)c2)nc2ccccc12 | < 70 |
| COc1cccn2c(C(=O)N3CCCCC3)c(C(F)(F)F)nc12 | < 70 |

| SMILES | growth inhibition at single dose [%] |
| --- | --- |
| CC(c1ccc(-c2ccccc2)c(F)c1)c1nn2c(-c3ccco3)nnc2s1 (stereo not given) | < 70 |
| CNc1snc(C)c1C(=O)N(C)Cc1ccc(C(C)C)cc1 | < 70 |
| Oc1ccc(Cl)cc1CNc1nc2ccccc2[nH]1 | < 70 |
| COc1ccc(CN=C2NN=C(c3cc4ccccc4o3)CS2)cc1 | < 70 |
| COc1cc2c(cc1OC)CN(C(=O)c1ccc(OCC(F)(F)F)nc1)CC2 | < 70 |
| O=C(Nc1nccs1)c1ccc(N2CCCCCC2)nc1 | < 70 |
| COc1cc(-c2nc(-c3ccccc3)c(-c3ccccc3)[nH]2)cc(OC)c1O | < 70 |
| CCOc1c(Cl)cc(CNC(C)C(O)c2ccccc2)cc1OC (stereo not given) | < 70 |
| COc1ccc(O)c(C(=O)c2cc(Cl)c3nc4ccccc4c(=O)n3c2)c1 | < 70 |
| Cc1ccc(C(=O)c2oc3ccc4c(C)cc(=O)oc4c3c2C)cc1 | < 70 |
| Cc1ccc(NC(=O)c2cnn(C(C)(C)C)c2C)cc1F | < 70 |
| COc1ccc(NC2=NC(=O)/C(=C/c3cc(C)n(-c4cccc(Cl)c4Cl)c3C)S2)cc1 | < 70 |
| CCOc1cc2c(cc1OCC)C(c1cc(Cl)ccc1O)NCC2 (stereo not given) | < 70 |
| COc1ccc(N(CCc2cccc(C)n2)C(C)=O)cc1 | < 70 |
| CC(=O)N1CCc2cc3nc(C)cc(C)c3cc21 | < 70 |
| O=C(Nc1ccc(N2CCN(c3ncccc3C(F)(F)F)CC2)nc1)c1cccs1 | < 70 |
| Cc1c(C)c(C)c(S(=O)(=O)N2CCN(C(C)C(=O)NC3CC3)CC2)c(C)c1C (stereo not given) | < 70 |
| Cc1ccc2[nH]c3c(c2c1)CCCC3NCCCN(C)C (stereo not given) | < 70 |
| COc1ccc(C(=O)NC(c2ccc(Cl)cc2Cl)c2cc(Cl)c3cccnc3c2O)cc1 (stereo not given) | < 70 |
| COc1ccc(-c2cc3c(nn2)-c2ccccc2C3=O)cc1 | < 70 |
| COc1cc(C(F)(F)F)nc2ccc(C)c(N)c12 | < 70 |
| NS(=O)(=O)c1cccc(-c2ccc3ncc(N4CCOCC4)nc3c2)c1 | < 70 |
| CC(C)(C)n1ncc(C(=O)NCCOc2ccccc2)c1C(F)(F)F | < 70 |
